Reference: patent US5744453A, “Polyamine conjugates for treatment of infection” (priority 1996, dated 1998)
Converted amounts (≈) assume the structure as drawn.

Legend:
[1] = Stability of a 5% solution of the trifluoroacetate salt at room temperature; type: physicochemical
Experimental: (§1) To a solution of spermine (0.8 g, 2 mmol) and triethylamine (0.3 mL) in 5 mL of DMF is added dropwise the N-oxysuccinimidechenodeoxycholate (1.0 g, 2 mmol) in 5 mL of DMF. The mixture is stirred overnight at room temperature, then poured into DCM (100 mL). The precipitate of the hydroxysuccinimide is filtered, and the filtrate is evaporated to give a liquid phase, which is poured into water (100 mL). The precipitate of the product is obtained. It is dissolved in MeOH (5 mL) and passed through a CHP-20 reverse-phase column. A […] in water solvent system is used to elute the product. The solvent is removed by evaporation, and the residue is dissolved in 1 mL of trifluoroacetic acid. The resulting solution is diluted up to 10 mL with water, filtered, and the filtrate subsequently lyophilized to afford 0.9 g (50% yield) of a solid (m.p. 96°-100° C.). […] A 5% solution of the trifluoroacetate salt of the chenodeoxycholic acid-spermine conjugate is stable at room temperature over about 12-24 h, after which a precipitate of the base separates as a slurry. TLC (MeOH:i-PrNH2 :DCM 1:1:2) Rf 0.7. IR (KBr): 3406, 2939, 2869, 1778 (COOH), 1680 (CONH--), 1553, 1458, 1196, 834, 722 cm^-1. ^1 H NMR (D2 O): δ3.75 (s, 1H), 3.4 (s, 1H), 2.8-3.15 (m, 12H), 2.2-1.2 (m, 39H), 0.9 (d, 3H), 0.86 (s, 3H), 0.55 (s, 3H). Fab MS: (M+Na^+)=598. Anal. Calc. for C34 H64 N4 O3.3CF3 COOH: C 52.5; H 7.29; N 6.09. […]

[2] = test system: Staphylococcus aureus 29213; assay: Determination of MIC against bacteria (Table 1), S. aureus 29213; type: cell-based; details: Staphylococcus aureus, 29213, 24 h, read-out: minimum inhibitory concentration (MIC), S. aureus 29213
Experimental: (§2) Antibiotic indicator strains Escherichia coli strain 25922, Enterococcus faecalis 29212, Pseudomonas aeruginosa 27853, and Staphylococcus aureus 29213 are obtained from the American Type Tissue Culture Collection (ATCC) in Rockville, Md. The cystic fibrosis isolate, Pseudomonas aeruginosa 39324, is also obtained from ATCC. Bacteria are routinely cultivated in cation-supplemented Mueller-Hinton broth (CAMHB) or agar at 37° C.
(§3) The minimum inhibitory concentration (MIC) of glycosylated and non-glycosylated steroidal polyamines for antibiotic indicator strains is determined by dissolving the test compounds in deionized water to a final concentration of 1 mg per mL. […] These solutions are sterilized by filtration through 0.22 micron syringe filters.
(§4) Stock solutions of individual compounds are serially diluted (two-fold) in sterile CAMHB in 96-well tissue culture dishes (Falcon) and inoculated with antibiotic indicator strains that are prepared as described below.
(§5) Antibiotic indicator strains are grown in 5 mL of CAMHB for 3-4 h at 37° C. with shaking (200 rpm) on a New Brunswick rotary shaker. Bacteria are adjusted to a turbidity that matched a 0.5 McFarland standard (ca. 10^8 CFU per mL) in sterile 0.85% saline. These bacterial suspensions are diluted 1:20 in sterile 0.85% saline and 10 μL (ca. […]) of each suspension is used to inoculate individual wells of a 96 well plate that contained different concentrations of the test compounds. Following inoculation, the plates are sealed with plastic tape, incubated for 24 h at 37° C. and visually inspected for bacterial growth. CAMHB inoculated with each of the antibiotic test strains and uninoculated CAMBH plus each of the test compounds served as positive and negative controls.

[3] = test system: Pseudomonas aeruginosa 39324; assay: Determination of MIC against bacteria (Table 1), P. aeruginosa 39324 (cystic fibrosis isolate); type: cell-based; details: Pseudomonas aeruginosa, 39324, 24 h, read-out: minimum inhibitory concentration (MIC), P. aeruginosa 39324
Experimental: as §2, §3, §4, §5

Solubility in water = type: physicochemical; details: trifluoroacetate salt
Experimental: as §1

[4] = test system: Enterococcus faecalis 29212; assay: Determination of MIC against bacteria (Table 1), E. faecalis 29212; type: cell-based; details: Enterococcus faecalis, 29212, 24 h, read-out: minimum inhibitory concentration (MIC), E. faecalis 29212
Experimental: as §2, §3, §4, §5

[5] = test system: Pseudomonas aeruginosa 27853; assay: Determination of MIC against bacteria (Table 1), P. aeruginosa 27853; type: cell-based; details: Pseudomonas aeruginosa, 27853, 24 h, read-out: minimum inhibitory concentration (MIC), P. aeruginosa 27853
Experimental: as §2, §3, §4, §5

[6] = test system: Escherichia coli strain 25922; assay: Determination of MIC against bacteria (Table 1), E. coli 25922; type: cell-based; details: Escherichia coli, 25922, 24 h, read-out: minimum inhibitory concentration (MIC), E. coli 25922
Experimental: as §2, §3, §4, §5

P. aeruginosa 27853 = assay: Augmentation assay: MIC of erythromycin (Table 2), P. aeruginosa 27853; type: cell-based; details: Pseudomonas aeruginosa, 27853, 24 h, read-out: MIC of erythromycin, P. aeruginosa 27853
Experimental: (§6) Stock solutions 1-2 mg/mL of test compounds are prepared in distilled water, filter-sterilized through a […] filter and diluted in CAMHB to the desired starting concentration. Aliquots of each test compound (0.1 mL), at 2× the final concentration, are added to the first rows of 96 well plates. The remaining wells of these plates are charged with 0.1 mL aliquots of each test compound at the desired final concentration. Subsequently, 0.1 mL of solutions of erythromycin, gentamicin, or vancomycin, prepared in CAMHB, are added to the first rows of these plates and serially diluted.
(§7) The wells are inoculated in duplicate with each of four antibiotic indicator strains prepared as described previously above. The final concentrations of antibiotics tested in these experiments range from 0.185-250 μg per mL. Plates containing each of the antibiotics serially diluted in CAMHB alone are also inoculated with antibiotic indicator strains to determine the MIC of erythromycin, gentamicin and vancomycin in the absence of the compounds of the invention. The plates are sealed with plastic tape, incubated in for 24 h at 37° C., visually inspected for bacterial growth. The MIC of erythromycin, gentamicin and vancomycin for each of the indicator strains in the presence or absence of test compound is subsequently determined.

E. coli 25922 = assay: Augmentation assay: MIC of erythromycin (Table 2), E. coli 25922; type: cell-based; details: Escherichia coli, 25922, 24 h, read-out: MIC of erythromycin, E. coli 25922
Experimental: as §6, §7

P. aeruginosa 39324 = assay: Augmentation assay: MIC of erythromycin (Table 2), P. aeruginosa 39324; type: cell-based; details: Pseudomonas aeruginosa, 39324, 24 h, read-out: MIC of erythromycin, P. aeruginosa 39324
Experimental: as §6, §7

Question: With `C[C@H](CCC(=O)NCCCNCCCCNCCCN)[C@H]1CC[C@H]2[C@@H]3[C@H](O)C[C@@H]4C[C@H](O)CC[C@]4(C)[C@H]3CC[C@]12C` [Compound H, 3α,7α-dihydroxy-12-deoxy-5β-cholan-24-oic acid, N-(4,9-diaza-12-aminododecyl)amide] as the molecule, how does the “stability of 5% solution, time before a precipitate of the base separates” value [1] read?
Answer: The value was 12 to 24 h.

Question: What about the MIC [2] of the same molecule?
Answer: Its MIC is 6.25 µg/mL (≈ 10.8 µM).

Question: And the MIC [3]?
Answer: The MIC was 50 to 100 µg/mL (≈ 86.7 to 173 µM).

Question: And the solubility in water (Solubility in water)?
Answer: Its solubility in water is “soluble in water”.

Question: And the MIC [4]?
Answer: Its MIC is 3.12 µg/mL (≈ 5.41 µM).

Question: What about the MIC [5] of the same molecule?
Answer: The MIC was 12.5 µg/mL (≈ 21.7 µM).

Question: And the MIC [6]?
Answer: The MIC was 25 µg/mL (≈ 43.3 µM).

Question: With `CC[C@H]1OC(=O)[C@H](C)[C@@H](O[C@H]2C[C@@](C)(OC)[C@@H](O)[C@H](C)O2)[C@H](C)[C@@H](O[C@@H]2O[C@H](C)C[C@H](N(C)C)[C@H]2O)[C@](C)(O)C[C@@H](C)C(=O)[C@H](C)[C@@H](O)[C@]1(C)O` [Erythromycin, erythromycin] as the molecule, how does the MIC (P. aeruginosa 27853) read?
Answer: Its MIC is > 250 µg/mL.

Question: What about the MIC (E. coli 25922) of the same molecule?
Answer: The MIC was 125 µg/mL.

Question: What about the MIC (P. aeruginosa 39324) of the same molecule?
Answer: The MIC was > 250 µg/mL.
